Key:
Experiment in all cases: relative viability (nuclei count vs DMSO), 5 days (fraction); higher = more cells survive
Palbociclib = compound: CC(=O)c1c(C)c2cnc(Nc3ccc(N4CCNCC4)cn3)nc2n(C2CCCC2)c1=O [Palbociclib]
Procedure, shortened: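 MetaXpress counted nuclei in 4× images of lung cancer cell lines that had been fixed, permeabilised and Hoechst-stained in one step. Before that, cells in 1536-well plates were kept overnight at 37 °C, pinned with five √10-spaced library-drug doses on vehicle-anchored plates, and cultured 5 days without medium change. Viability takes treated-well nuclei over vehicle-well nuclei and uses the median across plates. Plates were accepted only at control CV below 25% and at least one doubling.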

Palbociclib + Bortezomib = compound: CC(=O)c1c(C)c2cnc(Nc3ccc(N4CCNCC4)cn3)nc2n(C2CCCC2)c1=O [Palbociclib] + CC(C)C[C@H](NC(=O)[C@H](Cc1ccccc1)NC(=O)c1cnccn1)B(O)O [Bortezomib] (partner 0.002 µM)
Procedure, shortened: (§1)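 Values are medians from duplicate plates. Each reflects relative viability, defined as the nuclei count of treated wells over that of vehicle wells. Lung cancer cell lines in 1536-well plates were pin-tool dosed one day after seeding with one drug alone or with a fixed anchor-drug dose plus five library-drug doses (not always all listed) in √10 steps, then fixed, stained and imaged at 4× after 5 days.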

Palbociclib + Navitoclax = compound: CC(=O)c1c(C)c2cnc(Nc3ccc(N4CCNCC4)cn3)nc2n(C2CCCC2)c1=O [Palbociclib] + CC1(C)CCC(c2ccc(Cl)cc2)=C(CN2CCN(c3ccc(C(=O)NS(=O)(=O)c4ccc(N[C@H](CCN5CCOCC5)CSc5ccccc5)c(S(=O)(=O)C(F)(F)F)c4)cc3)CC2)C1 [Navitoclax] (partner 0.5 µM)
Procedure, shortened: as §1

Palbociclib + Foretinib = compound: CC(=O)c1c(C)c2cnc(Nc3ccc(N4CCNCC4)cn3)nc2n(C2CCCC2)c1=O [Palbociclib] + COc1cc2c(Oc3ccc(NC(=O)C4(C(=O)Nc5ccc(F)cc5)CC4)cc3F)ccnc2cc1OCCCN1CCOCC1 [Foretinib] (partner 0.25 µM)
Procedure, shortened: as §1

Palbociclib + Lapatinib = compound: CC(=O)c1c(C)c2cnc(Nc3ccc(N4CCNCC4)cn3)nc2n(C2CCCC2)c1=O [Palbociclib] + CS(=O)(=O)CCNCc1ccc(-c2ccc3ncnc(Nc4ccc(OCc5cccc(F)c5)c(Cl)c4)c3c2)o1 [Lapatinib] (partner 2 µM)
Procedure, shortened: as §1

Palbociclib + Pictilisib = compound: CC(=O)c1c(C)c2cnc(Nc3ccc(N4CCNCC4)cn3)nc2n(C2CCCC2)c1=O [Palbociclib] + CS(=O)(=O)N1CCN(Cc2cc3nc(-c4cccc5[nH]ncc45)nc(N4CCOCC4)c3s2)CC1 [Pictilisib] (partner 1 µM)
Procedure, shortened: as §1

Palbociclib + Crizotinib = compound: CC(=O)c1c(C)c2cnc(Nc3ccc(N4CCNCC4)cn3)nc2n(C2CCCC2)c1=O [Palbociclib] + C[C@@H](Oc1cc(-c2cnn(C3CCNCC3)c2)cnc1N)c1c(Cl)ccc(F)c1Cl [Crizotinib] (partner 1 µM)
Procedure, shortened: as §1

Palbociclib + Linsitinib = compound: CC(=O)c1c(C)c2cnc(Nc3ccc(N4CCNCC4)cn3)nc2n(C2CCCC2)c1=O [Palbociclib] + C[C@]1(O)C[C@@H](c2nc(-c3ccc4ccc(-c5ccccc5)nc4c3)c3c(N)nccn32)C1 [Linsitinib] (partner 1 µM)
Procedure, shortened: as §1

Palbociclib + Alpelisib = compound: CC(=O)c1c(C)c2cnc(Nc3ccc(N4CCNCC4)cn3)nc2n(C2CCCC2)c1=O [Palbociclib] + Cc1nc(NC(=O)N2CCC[C@H]2C(N)=O)sc1-c1ccnc(C(C)(C)C(F)(F)F)c1 [Alpelisib] (partner 2 µM)
Procedure, shortened: as §1

Palbociclib + Olaparib = compound: CC(=O)c1c(C)c2cnc(Nc3ccc(N4CCNCC4)cn3)nc2n(C2CCCC2)c1=O [Palbociclib] + O=C(c1cc(Cc2n[nH]c(=O)c3ccccc23)ccc1F)N1CCN(C(=O)C2CC2)CC1 [Olaparib] (partner 8 µM)
Procedure, shortened: as §1

EBC-1
relative viability (Palbociclib; 0.01 µM): 1.02
relative viability (Palbociclib; 0.03162 µM): 0.809
relative viability (Palbociclib; 0.1 µM): 0.662
relative viability (Palbociclib; 0.3162 µM): 0.543
relative viability (Palbociclib; 1 µM): 0.248
relative viability (Palbociclib + Bortezomib; first compound 0.01 µM): 0.468
relative viability (Palbociclib + Bortezomib; first compound 0.03162 µM): 0.445
relative viability (Palbociclib + Bortezomib; first compound 0.1 µM): 0.353
relative viability (Palbociclib + Bortezomib; first compound 0.3162 µM): 0.281
relative viability (Palbociclib + Bortezomib; first compound 1 µM): 0.193
relative viability (Palbociclib + Navitoclax; first compound 0.01 µM): 0.363
relative viability (Palbociclib + Navitoclax; first compound 0.03162 µM): 0.367
relative viability (Palbociclib + Navitoclax; first compound 0.1 µM): 0.283
relative viability (Palbociclib + Navitoclax; first compound 0.3162 µM): 0.215
relative viability (Palbociclib + Navitoclax; first compound 1 µM): 0.195
relative viability (Palbociclib + Foretinib; first compound 0.01 µM): 0.113
relative viability (Palbociclib + Foretinib; first compound 0.03162 µM): 0.0957
relative viability (Palbociclib + Foretinib; first compound 0.1 µM): 0.0957
relative viability (Palbociclib + Foretinib; first compound 0.3162 µM): 0.0852
relative viability (Palbociclib + Foretinib; first compound 1 µM): 0.0884
relative viability (Palbociclib + Lapatinib; first compound 0.01 µM): 0.221
relative viability (Palbociclib + Lapatinib; first compound 0.03162 µM): 0.215
relative viability (Palbociclib + Lapatinib; first compound 0.1 µM): 0.178
relative viability (Palbociclib + Lapatinib; first compound 0.3162 µM): 0.191
relative viability (Palbociclib + Lapatinib; first compound 1 µM): 0.192
relative viability (Palbociclib + Pictilisib; first compound 0.01 µM): 0.366
relative viability (Palbociclib + Pictilisib; first compound 0.03162 µM): 0.241
relative viability (Palbociclib + Pictilisib; first compound 0.1 µM): 0.202
relative viability (Palbociclib + Pictilisib; first compound 0.3162 µM): 0.178
relative viability (Palbociclib + Pictilisib; first compound 1 µM): 0.183
relative viability (Palbociclib + Crizotinib; first compound 0.01 µM): 0.193
relative viability (Palbociclib + Crizotinib; first compound 0.03162 µM): 0.165
relative viability (Palbociclib + Crizotinib; first compound 0.1 µM): 0.195
relative viability (Palbociclib + Crizotinib; first compound 0.3162 µM): 0.17
relative viability (Palbociclib + Crizotinib; first compound 1 µM): 0.18
relative viability (Palbociclib + Linsitinib; first compound 0.01 µM): 0.923
relative viability (Palbociclib + Linsitinib; first compound 0.03162 µM): 0.843
relative viability (Palbociclib + Linsitinib; first compound 0.1 µM): 0.647
relative viability (Palbociclib + Linsitinib; first compound 0.3162 µM): 0.554
relative viability (Palbociclib + Linsitinib; first compound 1 µM): 0.293
relative viability (Palbociclib + Alpelisib; first compound 0.01 µM): 0.786
relative viability (Palbociclib + Alpelisib; first compound 0.03162 µM): 0.774
relative viability (Palbociclib + Alpelisib; first compound 0.1 µM): 0.573
relative viability (Palbociclib + Alpelisib; first compound 0.3162 µM): 0.409
relative viability (Palbociclib + Alpelisib; first compound 1 µM): 0.184
relative viability (Palbociclib + Olaparib; first compound 0.01 µM): 0.696
relative viability (Palbociclib + Olaparib; first compound 0.03162 µM): 0.647
relative viability (Palbociclib + Olaparib; first compound 0.1 µM): 0.452
relative viability (Palbociclib + Olaparib; first compound 0.3162 µM): 0.514
relative viability (Palbociclib + Olaparib; first compound 1 µM): 0.241

Reference: the supplement of paper PMC10307832
